Tested on: OB-R
Assay: p-Stat3 expression in rabbit endometrial cells (immunocytochemistry, Western blot)
Format: cell-based
Settings: for effect on basal expression of p-Stat3 / effect on leptin up-regulation of Stat3 phosphorylation: rESC and rEEC; for effect on basal expression of p-Stat3: Western blot, 3 to 300 nM; for effect on leptin up-regulation of Stat3 phosphorylation: peptides 3 to 300 nM, antibody 1-10 μg/ml
Experimental: Rabbit endometrial cells (5×10^5 cells/well) were cultured for 5-9 days in DMEM-MCDB105 (3:1) medium containing 10% fetal bovine serum (FBS), 5 μg/ml insulin, 1% amphopthericin B, 100 μg/ml streptomycin and 100 U/ml penicillin until confluent layers were obtained. The cells were washed twice with 100 mM phosphate saline buffer (PBS) −2% BSA (w/v), pH 7.2 and cultured for an additional 2 days in the same medium but without FBS (basal medium). This procedure was performed to reduce any effects of cytokines from FBS on the phosphorylation rate of Stat3 as well as the expression of other cytokines and their receptors. Cells were washed as described before and cultured in basal medium containing leptin (0-10 nM), OB-R antibody (1-20 μg/ml) and/or LPA-2 peptides (0-300 nM). Cultures were stopped at 24 h and the cells were used for immunocytochemistry, binding studies and western blot analysis. The conditioned media were collected, lyophilized and stored at −80° C. for ELISA determinations. Duplicate wells were run for each treatment and the experiments repeated at least three times with different cell preparations from different rabbits. Controls were the same cellular preparations cultured in basal medium containing non-specific goat IgGs and LPA-2Sc.
The rabbit endometrial cells were cultured as described above in duplicate on 8-well glass-bottom culture plates (Nalgene Nunc International, Naperville, Ill.) and fixed with methanol at −20° C. for 20 min for immunocytochemical studies. All the antibodies tested were diluted in PBS-2% BSA (w/v; buffer A).
Anti IL-1R tl (1 μg/ml), anti LIF-R (2 μg/ml), anti vimentin (1:50), anti cytokeratin (1:50) and anti p-Stat3 (1 μg/ml) antibodies were used to assess the expression of the respective antigens by rEEC and rESC cultures. After incubation with primary antibodies the cells were incubated with a streptavidin-biotin-alkaline phosphatase system according to the manufacturer directions (Vectastain, ABC-AP kit, Vector Laboratories, Burlingame, Calif.) and counter-stained with hematoxylin (Dako). Negative controls included cell preparations in which the primary antibodies were substituted by irrelevant species matched IgGs.
After culture in the presence of leptin, LPAs or antibodies, the endometrial cells were washed with ice-cold PBS and lysed by homogenization on ice with lysis buffer [[…] Tris, pH 7.4, containing 137 nM NaCl, 2 mM EDTA, 10% glycerol, 50 mM β-glycerophosphate, 50 nM NaF, 1% Nonidet P-40, 2 mM phenyl-methylsulfonyl fluoride, 2 mM sodium orthovanadate, 100 μM antipain, 0.1 mg/ml trypsin inhibitor and protease cocktail inhibitor 1:50 (Sigma)]. Cellular lysates were centrifuged at 24000 g at 4° C. for 10 min. Protein concentrations were determined using the Bradford protein assay (BioRad Laboratories Inc., Hercules, Calif.).
Protein extracts from cell lysates were combined (1:1) with Laemmli buffer (2× concentrated) and 10 μg of proteins were loaded per lane on 7.5% (for p-Stat3, IL-1R tl and LIF-R) and 10% (for OB-R) SDS-PAGE gels. Electrophoresis was performed at 65 V for 1-1.5 h (BioRad, electrophoresis apparatus). Electroblotting onto 0.2 μm nitrocellulose membranes was performed at 22V overnight at 4° C. in 48 nM Tris-39 nM glycine buffer containing 0.037% SDS and 20% methanol. […]

| Substance | effect on basal expression of p-Stat3 | effect on leptin up-regulation of Stat3 phosphorylation (leptin 3 nM) | p-Stat3 expression after leptin (rESC, immunocytochemistry, leptin 3 nM) |
| --- | --- | --- | --- |
| SRNVIQISNDLENLRDLLHVLAFSKS [LPA-2, 26 amino acid peptide, residues 70-95 of helix III of the human leptin molecule; leptin peptide antagonist] | effectively inhibited the basal expression of p-Stat3 | significantly inhibits the leptin up-regulation of Stat3 phosphorylation | – |
| VAEVLNRSDLIQRISFSLDLNNSKLH [LPA-2Sc, scrambled version of LPA-2, negative control, reference compound] | No inhibitory effect on p-Stat3 expression | not observed | – |
| leptin: human recombinant leptin (R&D Systems), OB-R ligand used as stimulus | – | – | up-regulated |

From patent US8058228B2, “Leptin peptide antagonists” (Boston Biomedical Research Institute, priority 2004, dated 2011)
